Source: patent US7662896B2, “Fluorochemical sulfonamide surfactants” (3M Innovative Properties Company, priority 1999, dated 2010)

Columns and labels:
[1] = Amount of perfluoroalkylsulfonate in male rat liver tissue (HPLC/ESMS/MS); format: in vivo; conditions: for Elimination from the body (in words): rat, tested as potassium salt
[2] = Surface tension in water (Test Procedure I, Kruss K12 Tensiometer); format: physicochemical; conditions: for Surface Tension (dynes/cm) at Various Surfactant Concentrations: 10 ppm: 10 ppm in water; for Surface Tension (dynes/cm) at Various Surfactant Concentrations: 100 ppm: 100 ppm in water; for Surface Tension (dynes/cm) at Various Surfactant Concentrations: 1000 ppm: 1000 ppm in water
Experimental: Test Procedure I—Surface Tension Determination
All surface tensions were determined using a Kruss K12 Tensiometer. […] The program was run using a Wilhelmy platinum plate (PL12) and glass sample vessel (GL7).

[3] = system: SPF-bred Sprague Dawley rats; assay: 28-day oral toxicity study by daily gavage in the rat; format: in vivo; conditions: 28 days daily oral gavage; 3 (C8), 10 (C6), 30 (C4) mg/kg body weight/day
Experimental: (§1) A 28-day oral toxicity study with perfluorooctanesulfonate (C8F17SO3^−) was conducted by daily gavage in the rat followed by 14 and 28 day recovery periods. The dose levels for the study were selected to be 0 mg/kg body weight/day for species control, and 3 mg/kg body weight/day for potassium perfluorooctanesulfonate. The potassium perfluorooctanesulfonate was formulated in 1% aqueous carboxymethyl cellulose and administered daily for 28 days by oral gavage to SPF-bred Sprague Dawley rats. A vehicle control group and a treated group were tested, each consisting of 8 male and 8 female rats. An extra 3 rats per sex per group were allowed 14 days of recovery, and another 3 rats per sex per group were allowed 28 days of recovery.

[4] = Amount of perfluoroalkylsulfonate in male rat liver tissue (HPLC/ESMS/MS); format: in vivo; conditions: for Amount (ppm) of Sulfonate Day 1N* / Amount (ppm) of Sulfonate Day 1 / Amount (ppm) of Sulfonate Day 14N* / Amount (ppm) of Sulfonate Day 14 / Amount (ppm) of Sulfonate Day 28N* / Amount (ppm) of Sulfonate Day 28: male rat liver; for Amount (ppm) of Sulfonate Day 1N*: normalized to a feeding level of 3 mg/kg body weight per day; for Amount (ppm) of Sulfonate Day 1: day 1 after 28 day dosing at 3 (C8), 10 (C6), 30 (C4) mg/kg/day; for Amount (ppm) of Sulfonate Day 14N* / Amount (ppm) of Sulfonate Day 28N*: normalized to 3 mg/kg body weight per day; for Amount (ppm) of Sulfonate Day 14: day 14 of recovery; for Amount (ppm) of Sulfonate Day 28: day 28 of recovery
Experimental: as §1
Extracted liver tissue samples from the sacrificed rats of the study were homogenized and extracted using an ion-pairing extraction procedure. The extracts were quantitatively analyzed using high-pressure liquid chromatography/electrospray tandem mass spectroscopy (HPLC/ESMS/MS) and evaluated.

[5] = Wetting and film characterization on glass surface (Test Procedure III); format: physicochemical
Experimental: Test Procedure III—Wetting and Film Characterization on Glass Surface
A solution of the surfactant to be tested was prepared at 0.01% by weight in HPLC grade water. The surfactant solution pH was measured and if necessary, pH was adjusted to 9 by adding several drops of 1% NH4OH. Glass plates were cleaned using Windex and a squeegee. Cleaned plates placed on top of 5.1 cm by 5.1 cm by 10.2 cm wood supports, which were laid out in a parallel arrangement. Two glass plates were used for each surfactant solution and laid out adjacent to each other. Surfactant solution (10 drops) was placed on each of the two plates and observed for solution hydrophilic or hydrophobic characteristics. The solution was considered hydrophilic if it was spread out and hydrophobic if it beaded up. The surfactant solutions were allowed to air dry and the resulting film on the glass plate observed for solution autophilic or autophobic properties. The solution was considered autophilic if it dried as a sheet and autophobic if it dried in separate puddles. […] On one of the plates with the dried surfactant film was placed 10 drops of the same surfactant solution on top of the area with the dry film. […] On the other plate was placed 10 drops of HPLC grade water on top of the area with the dry film, and hydrophilic or hydrophobic characteristics were observed.

[6] = Contact angle measurement on glass cover slips (Test Procedure II); format: physicochemical
Experimental: Test Procedure II—Contact Angle Measurement
Glass cover slips were rinsed with HPLC water and allow to air dry. The surfactant to be tested was mixed at 0.01 weight % with HPLC water. The pH was measured and if below 9, the pH was adjust to 9 by adding several drops of 1% NH4OH. The surface tension of the surfactant solution was determined using Test Procedure I.
A clean, dry glass cover slip was placed in the clamp and lower to ˜1 mm above the surface of the surfactant/water solution. Velocity search was set at 6 mm/min and velocity measure was set at 4 mm/min. Immersion depth was at least 10 mm, depending on the size of the cover slip. Advancing and receding contact angles were measured with 3 cycles. The cover slip was allowed to dry in the clamp, above the solution, for ten minutes. Advancing and receding contact angles were measured a second time with 3 cycles.

[7] = 28 days following completion of feeding
[8] = 28 days following completion of feeding, normalized to the same feeding levels
[9] = immediately following completion of feeding
[10] = 0.01 weight % solution air dried on glass
[11] = 0.01 weight % solution, glass with a film of dried surfactant solution
[12] = 0.01 weight % surfactant solution in HPLC water

SMILES | Surface Tension (dynes/cm) at Various Surfactant Concentrations: 10 ppm [2] [dynes/cm] | Surface Tension (dynes/cm) at Various Surfactant Concentrations: 100 ppm [2] [dynes/cm] | Surface Tension (dynes/cm) at Various Surfactant Concentrations: 1000 ppm [2] [dynes/cm] | Observed effects in treated rats [3] | Amount (ppm) of Sulfonate Day 1N* [4] [ppm] | Amount (ppm) of Sulfonate Day 1 [4] [ppm] | Amount (ppm) of Sulfonate Day 14N* [4] [ppm] | Amount (ppm) of Sulfonate Day 14 [4] [ppm] | Amount (ppm) of Sulfonate Day 28N* [4] [ppm] | Amount (ppm) of Sulfonate Day 28 [4] [ppm] | further results
O=S(=O)([O-])C(F)(F)C(F)(F)C(F)(F)C(F)(F)F.[K+] [Example C4F9SO3K, Potassium perfluorobutanesulfonate] | 70 | 67.5 | 53 | No clear systematic toxicity, nor organ dysfunction at macroscopic or microscopic levels were observed | 0.31 | 3.09 ± 1.58 | 0.0126 | 0.126 ± 0.084 | 0.0025 | 0.025 ± 0.015 | Factor lower than C6F13SO3^− in liver [1, 7]: > 1400; Factor lower than C6F13SO3^− in liver [1, 8]: 4400; Factor lower than C6F13SO3^− in liver [1, 9]: > 100; Elimination from the body (in words) [1]: unexpectedly fast and effective elimination; Elimination from the body (in words) ([1]; listed as perfluorobutylsulfonate): eliminates from the body much more effectively than perfluorohexylsulfonate and even more effectively than perfluorooctylsulfonate
O=S(=O)([O-])C(F)(F)C(F)(F)C(F)(F)C(F)(F)C(F)(F)C(F)(F)C(F)(F)C(F)(F)F.[K+] [Example C8F17SO3K, potassium perfluorooctanesulfonate] | 67.7 | 54.1 | 33.1 | decreased body weight, decreased blood cholesterol, increased liver size, and hepatocyte hypertrophy | 419 | 419 ± 86 | 309 | 309 ± 34 | 237 | 237 ± 25 | –
O=S(=O)(O)C(F)(F)C(F)(F)C(F)(F)C(F)(F)C(F)(F)C(F)(F)F [C6F13SO3^−, perfluorohexanesulfonate] | – | – | – | comparable, but less persistent than those of Comparative Example C22 | 98 | 327 ± 52 | 19 | 61.9 ± 11.7 | 11 | 36.3 ± 7.4 | Factor lower than C8F17SO3^− in liver [4, 7]: 6.5; Factor lower than C8F17SO3^− in liver [4, 8]: 21.5; Factor lower than C8F17SO3^− in liver [4, 9]: 1.3
CCN(CC(=O)[O-])S(=O)(=O)C(F)(F)C(F)(F)C(F)(F)C(F)(F)C(F)(F)C(F)(F)C(F)(F)C(F)(F)F.[K+] [FC-129, C8F17SO2N(C2H5)CH2CO2^−K^+] | – | – | – | – | – | – | – | – | – | – | Surface Tension (dynes/cm) at Various Surfactant Concentrations: 20 ppm ([2]; 20 ppm in water): 49 dynes/cm; Surface Tension (dynes/cm) at Various Surfactant Concentrations: 23 ppm ([2]; 23 ppm in water): 29.5 dynes/cm; Surface Tension (dynes/cm) at Various Surfactant Concentrations: 83 ppm ([2]; 83 ppm in water): 29 dynes/cm; Surface Tension (dynes/cm) at Various Surfactant Concentrations: 164 ppm ([2]; 164 ppm in water): 24 dynes/cm; Surface Tension (dynes/cm) at Various Surfactant Concentrations: 200 ppm ([2]; 200 ppm in water): 23 dynes/cm; Surface Tension (dynes/cm) at Various Surfactant Concentrations: 273 ppm ([2]; 273 ppm in water): 17.5 dynes/cm; Surface Tension (dynes/cm) at Various Surfactant Concentrations: 421 ppm ([2]; 421 ppm in water): 16 dynes/cm; Surface Tension (dynes/cm) at Various Surfactant Concentrations: 617 ppm ([2]; 617 ppm in water): 15.5 dynes/cm; Surface Tension (dynes/cm) at Various Surfactant Concentrations: 875 ppm ([2]; 875 ppm in water): 16 dynes/cm; Surface Tension (dynes/cm) at Various Surfactant Concentrations: 1032 ppm ([2]; 1032 ppm in water): 16.5 dynes/cm; Surface Tension (dynes/cm) at Various Surfactant Concentrations: 2000 ppm ([2]; 2000 ppm in water): 17 dynes/cm; Dried film clarity [5, 10]: clear; Dried film: autophilic or autophobic [5, 10]: autophilic; Solution on clean glass: hydrophilic or hydrophobic ([5]; 0.01 weight % solution in HPLC grade water): hydrophobic; Characteristic the dried film gave to water and to the surfactant solution ([5]; 10 drops placed on the dried film): hydrophilic; Advancing CA on Dried Surfactant [6, 11]: 64.6 °; Receding CA on Dried Surfactant [6, 11]: 12.2 °; Advancing CA on Clean Glass [6, 12]: 61.6 °; Receding CA on Clean Glass [6, 12]: 7 °
